Test results as given in US10046038B2, “Leptospira with increased antigenic mass” (priority 2012, dated 2018).
Like-named read-outs stand apart in the source and are kept apart here.

Key:
[1] = system: Leptospira serogroup Tarassovi; experiment: Biomass and toxicity in fermenter culture; format: cell-based, L. interrogans (sensu lato); conditions: 300 μg/ml C18:2; EMJH standard BSA
Protocol: In a supplementation similar to that described in Example 6 above, the effect of supplementation with different amounts of C18:2 fatty acid on the biomass and the antigenic mass of a culture of Leptospira serogroup Tarassovi in EMJH medium with standard BSA was tested.

[2] = system: Leptospira serogroup Tarassovi; format: cell-based, L. interrogans (sensu lato); conditions: EMJH standard BSA, vs unsupplemented reference culture
Protocol: (§1) All experiments were performed in 0.5, 2 or 20 L working volume, computer-controlled fermenters (Sartorius), which were filled with 0.5, 1 or 10 L sterile-filtered EMJH medium, respectively. The standard EMJH medium contained 1% w/v BSA and 0.125% w/v polysorbate 80. The pH of the medium was 7.4 ±0.1 at start. The fermenter was inoculated with 5% v/v serogroup lcterohaemorrhagiae pre-culture (passage 5), giving an inoculation density of 2-4×10^7 cells/ml at day 0.
(§2) Supplementation was done either with pure linoleic acid (Sigma Aldrich, >99% pure) as a 10% v/v stock in absolute ethanol (JT Baker). Alternatively, linoleic acid was supplemented by using a BSA that was created with a high level of linoleic acid (high LA BSA). This high LA BSA was used either to replace a standard BSA in EMJH medium, or was used in addition to BSA in the EMJH medium, in which case it was added as a 25% w/v stock solution in sterile water. The high LA BSA or the pure linoleic acid/ethanol supplements were fed to a fermenter over the course of 4 hours, at 0.1-0.2 ml/hour, until the fermenter culture had received a desired total amount of linoleic acid. Different total available levels of linoleic acid have been tested, of between about 5 and 425 μg/ml in the total volume. The fermenter cultures of Leptospira were supplemented at different cell-densities i.e. at early-, mid- or end phase culture.
(§3) Daily 5 ml samples were taken aseptically, directly from the fermenter, for analyses of total cell count (by Petroff-Hausser counting chamber); antigenic mass (by antigen amount Elisa); inactivated cells; and for profiling of the fatty acid type and-relative amounts (by gas chromatography) in the culture medium.
(§4) Samples were inactivated with 0.1 or 0.2% v/v BPL, at 29° C. for 16-24 hours. The inactivated Leptospira were tested in an antigen Elisa within 24 hours.
(§5) For a reference see: R. A. Hartskeerl et al., (International course on laboratory methods for the diagnosis of Leptospirosis, 4th Edition, 1 Apr. 2004. Royal Tropical Institute, Amsterdam).
(§6) The Elisa's were set up as capture assays, whereby the same moab was used for coating and for detection.
A reference standard was prepared for each Leptospira strain that was tested by antigen Elisa. The standard is a batch of monovalent Leptospira antigen, from inactivated cells. This was prepared using common techniques, essentially by proliferating a specific strain of Leptospira in EMJH medium as described above, and was inactivated as described before. Next the standard was concentrated and/or diluted in phosphate buffered saline, to contain about 1×10^9 cells/ml. An arbitrary number of antigen units was affixed to the sample, for example: 1000 Units/ml. When the standard needed replenishing, a subsequent preparation of the same standard, was compared and titrated alongside the old standard several times, before replacing it.
As before, the average antigenic mass score by Elisa was calculated per 1×10^9 cells (pre-inactivation). […] The average antigenic mass 1×10^9 cells of the reference culture was set at 0% increase.
Both alpha-and gamma C18:3 were purchased as pure chemicals (>98%).

[3] = system: Leptospira serogroup Icterohaemorrhagiae; experiment: Biomass (total cell count) and toxicity in fermenter culture; format: cell-based, L. interrogans (sensu lato); conditions: additional 400 μg/ml pure linoleic acid in ethanol; EMJH with high LA BSA
Protocol: (§7) During all fermentation experiments the temperature was controlled at about 29° C. The medium was aerated with headspace airflow, and the dissolved oxygen (pO2) concentration was controlled by automatic variation of the agitation-rate, to maintain a set pO2 concentration. Temperature, pH and pO2 concentration were monitored online, but pH and foam formation were not controlled.

[4] = system: Leptospira serogroup Australis (serovar Bratislava); format: cell-based, L. interrogans (sensu lato); conditions: linoleic acid supplementation of low LA BSA medium
[5] = system: Leptospira serogroup Grippotyphosa; format: cell-based, L. interrogans (sensu lato); conditions: supplementation with linoleic acid; days 4 and 5
[6] = system: Leptospira serogroup Icterohaemorrhagiae; experiment: Antigenic mass of fermenter culture by antigen Elisa; format: cell-based, L. interrogans (sensu lato); conditions: for relative Ag. mass (%): non-supplemented = 100
Protocol: A working seed of a strain of L. interrogans was inoculated into EMJH medium and incubated at 29° C. for 3 to 5 days. If needed up to 5 consecutive pre-culture passages could be made, whereby the pre-cultures were visually inspected for sufficient proliferation (turbidity) as criterion for transfer to the next passage.
as §1, §7
In comparative experiments up to 4 fermenters were run in parallel, which started off simultaneously with the same medium and Leptospira inoculum. One fermenter then usually contained only standard EMJH medium and served as reference, while in the others different supplementations of polyunsaturated C18 fatty acid were made.
as §2, §3, §4, §5, §6
A reference standard was prepared for each Leptospira strain that was tested by antigen Elisa. The standard is a batch of monovalent Leptospira antigen, from inactivated cells. This was prepared using common techniques, essentially by proliferating a specific strain of Leptospira in EMJH medium as described above, and was inactivated as described before.

[7] = system: Leptospira; conditions: most serogroups other than Canicola; alpha or gamma isomer

CCCCCC=CCC=CCCCCCCCC(=O)O [linoleic acid, 9, 12-octadecadienoic acid]
toxicity to the culture [1]: toxic
increase in antigenic mass per unit of biomass ([2]; 100 μg/ml C18:2): 67%
increase in antigenic mass per unit of biomass ([2]; 200 μg/ml C18:2): 99%
toxicity for the bacteria (cell numbers after supplementation) [3]: induced toxicity
increase in antigenic mass [4]: 45%
increase in the antigenic mass [5]: 63%
Ag. mass, Ag U/10^9 cells/ml ([6]; 100 μg/ml added at 1 × 10^8 cells/ml, total 105 μg/ml, average of days 4-5): 1783 Ag U/10^9 cells/ml
relative Ag. mass (%) ([6]; 100 μg/ml added at 1 × 10^8 cells/ml, average of days 4-5): 226%
Ag. mass, Ag U/10^9 cells/ml ([6]; 100 μg/ml added at 5 × 10^8 cells/ml, total 105 μg/ml, average of days 4-5): 1564 Ag U/10^9 cells/ml
relative Ag. mass (%) ([6]; 100 μg/ml added at 5 × 10^8 cells/ml, average of days 4-5): 198%
Ag. mass, Ag U/10^9 cells/ml ([6]; 100 μg/ml added at 9 × 10^8 cells/ml, total 105 μg/ml, average of days 4-5): 1656 Ag U/10^9 cells/ml
relative Ag. mass (%) ([6]; 100 μg/ml added at 9 × 10^8 cells/ml, average of days 4-5): 210%
antigenic mass ([6]; 100 μg/ml pure linoleic acid in ethanol added on day 2 (mid-exponential) to EMJH with high LA BSA, average of days 3-5): 1767 Ag. U/1×10^9 cells
increase in relative antigenic mass ([6]; 100 μg/ml single fatty acid, FIGS. 37 and 38): 77%
increase of antigenic mass ([6]; 25 instead of 5 μg/ml linoleic acid available): 124%
increase of the antigenic mass (in words) ([6]; additional 200 μg/ml pure linoleic acid, EMJH with high LA BSA): slightly less increase of the antigenic mass compared to that of the 100 μg/ml group
Ag. mass, Ag U/10^9 cells/ml ([6]; supplem. pure C18:2 75 μg/ml, total 80 μg/ml, EMJH standard BSA, average of days 3-5): 1450 Ag U/10^9 cells/ml
relative Ag. mass (%) ([6]; supplem. pure C18:2 75 μg/ml, total 80 μg/ml, average of days 3-5): 199%
Ag. mass, Ag U/10^9 cells/ml ([6]; supplem. pure C18:2 150 μg/ml, total 155 μg/ml, EMJH standard BSA, average of days 3-5): 1550 Ag U/10^9 cells/ml
relative Ag. mass (%) ([6]; supplem. pure C18:2 150 μg/ml, total 155 μg/ml, average of days 3-5): 213%

CC/C=C\C/C=C\C/C=C\CCCCCCCC(=O)O [C18:3, Linolenic acid]
supplementation level showing cytotoxicity [7]: ≥ 200 µg/mL
